From US20130253179A1, “Functionalization Processes and Reactants Used in Such Processes Using an Isatoic Anhydride or a Derivative Thereof, Biological Molecules Thus Treated and Kits” (priority 2010, published 2013)
Values after ≈ are worked out from the molar mass of the structure shown.

Tests used:
[1] = system: model oligoribonucleotide (ORN) with 27 bases; experiment: Functionalisation of a model ORN with 27 bases: functionalisation rate and regiospecificity by HPLC/LC-MS after nuclease P1/alkaline phosphatase hydrolysis; assay type: biochemical; details: compound 30 mM, 1 h at 65° C., 250 mM TEAAc pH 7, 25% DMSO; for Fr (corrected functionalisation rate): ORN 8 nmol
Excerpt: For this purpose, a fixed quantity of ORN is reacted with an isatoic anhydride derivative conjugated to a molecule of interest (Cy3 IA Me (13)), under various temperature conditions, duration conditions, reaction medium conditions, etc. HPLC monitoring of the reaction at 260 nm makes it possible to detect the disappearance of the peak corresponding to the initial ORN and the appearance of peaks corresponding to acylated ORN. These products have a greater retention time and have an absorption spectrum corresponding to both that of ORN and that of the fluorescent label.
However, for greater precision on the functionalisation site and to precisely evaluate the functionalisation rate (Fr), the ORN population (labelled and unlabelled) is separated from the excess label by precipitation with acetone/lithium perchlorate or by gel permeation (NAP 5™, GE Health Care. Then the ORNs thus obtained are submitted to hydrolysis with the nuclease P1 (Aldrich, Saint Louis, USA) and with the alkaline phosphatase (Aldrich, Saint Louis, USA), in order to hydrolyse the phosphate diester bonds of ORN.
The ORN functionalisation rate (Fr) is evaluated by measuring: • the area corresponding to the terminal mononucleoside adducts (functionalised at 2′ and at 3′) and the area corresponding to the acylated dinucleosides (functionalised internally on 2′OH) • compared to the area of the peaks corresponding to the four ribonucleosides.
The internal/external regiospecificity of the acylation is evaluated by measuring the relative proportion of the areas corresponding to the: • end mono-nucleotides acylated at 2′ and at 3′ • and di-nucleotides acylated internally on 2′OH • which are easily detectable by HPLC.
The mixture is incubated for 60 minutes at 65° C. in an oven on a rack which is temperature-balanced in advance. An HPLC injection (conditions 3) makes it possible to monitor a formation of a certain quantity of acylated ORN as described in FIG. 6. To eliminate the salts and the excess label, the mixture is then purified on Sephadex NAP 5 gel (GE Health Care, Uppsala, Sweden)) and/or triple precipitation in 1.2 mL of a 180 mM Acetone/LiClO4 75/25 mixture. To finish, the pellet is dried with acetone and is evaporated with the centrifugal evaporator (RCT 60, Jouan, St Herblain, France). The residue is then taken up in 33 μL of a H2O/DMSO 85/15 solution and an HPLC injection (conditions 3) is performed in order to verify the proper elimination of the label. There is added to the mixture 2 μL of nuclease P1 (ref.: N8630 Sigma-Aldrich, St Louis, USA) in 1 U/μl solution in its buffer: 20 mM sodium acetate pH 5.5; 1 mM ZnCl2; 50 mM NaCl and 1 μL of 7 u/μl alkaline phosphatase in water (Ref. P7923-2KU Sigma-Aldrich, St Louis, USA). The medium is left at ambient temperature for 4 to 6 hours. It is then injected into HPLC (conditions 3) in order to verify the total hydrolysis of the ORN and in order to analyse the nature of the fragments obtained in accordance with what was described above and as described in FIG. 6.
The functionalisation rate is evaluated with UV at 260 nm by integration of the clusters corresponding to the acylated dinucleotides and to the acylated nucleosides) relative to the clusters corresponding to the four ribonucleosides. The ratio of the population of acylated dinucleotides to the population of acylated nucleosides is evaluated in the same way in order to evaluate the percentage of functionalisation on the 3′ terminal end.
The functionalisation rate values, presented within the framework of this invention, take into account the correction factor which must be applied according to the molar extinction coefficient at 260 nm of each of the nucleosides and according to whether they are nucleosides or dinucleotides. […]

physchem = details: water
ODN with 53 bases = experiment: RNA vs DNA chemoselectivity: functionalisation of an ODN with 53 bases; assay type: biochemical; details: compound 30 mM, DMSO/TEAAc buffer 25/75 (250 mM pH 7), 1 h at 65° C.
Experimental: After precipitation with acetone and hydrolysis with nuclease P1 and alkaline phosphatase, the hydrolysed fragments are analysed by LC-MS, as described in example 3. An example of the chromatograms monitoring the reaction of ODN or ORN with compound 13 is shown in FIG. 9, in which graphs A, B and C respectively represent ORN, ORN functionalised with compound 13 and precipitated, and ORN functionalised with 13, precipitated and hydrolysed. Graphs D, E and F represent the same thing, but with ODN.

in vitro RNA transcripts = experiment: Detection on Affymetrix DNA chip of biotinylated in vitro RNA transcripts; design: species or system human; details: 30 mM compound, 60 mins at 65° C.; background in the order of 30 RFU
Experimental: The in vitro transcripts are generated by in vitro transcription of the total RNA extracted from blood samples with the aid of the MessageAmp II kit (Reference AM 1751, AMBION, Austin, Tex.). Briefly, after extraction of the total RNA from the blood cells, a first reverse transcription step by the enzyme […] is performed in order to generate the DNA strand complementary to the mRNA (cDNA). The RNA strand is then digested by the RNase H before forming the double strand of cDNA by means of a DNA polymerase. Finally, the antisense RNA (in vitro transcripts) is obtained from the cDNA using the transcriptase T7.
17.6 μL of previously obtained solution of in vitro RNA transcripts (568 ng/μl), 9.4 μL of ultrapure water and 3 μL of 100 mM Zn(OAc)2 pH 6.5 is mixed. This solution is then incubated for 15 mins at 70° C., and then placed immediately into ice.
30 μL of this solution is sampled, to which there is added 30 μL of a potassium phosphate solution (pH 7, 1M), 30 μL of ultrapure water and 30 μl of the compound SBiot IA Me (9) in a 120 mM solution in DMSO. […]
The excess reagent is then removed in the same way as in example 7 by precipitation with isopropanol. As well as depositing on an Affymetrix chip GeneChip Human Genome U133 Plus 2.0 Array, ref 900470, Affymetrix, St Clara, USA), the detection and measurement of the fluorescence.

| Compound | Fr (corrected functionalisation rate) [1] [%] | External/internal regiospecificity (uncorrected ratio of areas acylated mononucleosides / acylated dinucleotides) [1] | solubility (physchem) [mM] | solubility (Solubility in water) [mM] | corrected functionalisation rate of the ODN (ODN with 53 bases) [%] | fluorescence intensities compared with background noise of unfunctionalised target IVTs (in vitro RNA transcripts) |
| --- | --- | --- | --- | --- | --- | --- |
| O=C(CCCCC1SCC2NC(=O)NC21)NCCOCCOCCOCCOCCC(=O)NCCSSCCC(=O)Nc1ccc2[nH]c(=O)oc(=O)c2c1 (stereo not shown) [5Biot PEG4 SS IA 23] | 3.1 | 52/48 |  |  |  |  |
| O=C(CCCCC1SCC2NC(=O)NC21)Nc1ccc2c(c1)c(=O)oc(=O)n2CCCS(=O)(=O)O (stereo not shown) [5Biot IA SO3^− 10, 1-propylsulfone-5-biotin-isatoic anhydride] | 1.6 | 60/40 |  |  |  |  |
| CCN1/C(=C\C=C\C2=[N+](CCCCCC(=O)Nc3ccc4[nH]c(=O)oc(=O)c4c3)c3ccc(S(=O)(=O)[O-])cc3C2(C)C)C(C)(C)c2cc(S(=O)(=O)O)ccc21 [Cy3 IA 7, 5-Cy3 isatoic anhydride] | 2.6 | 61/39 | > 100 |  |  |  |
| CC(=O)Nc1ccc2c(c1)c(=O)oc(=O)n2CC(=O)NCCOCCOCCNC(=O)CCCCC1SCC2NC(=O)NC21 (stereo not shown) [N(Biot PEG2) acetamido IA 19, 1-biotin-diethyleneglycol-5-acetamido-isatoic anhydride] | 1.2 | 50/50 |  |  |  |  |
| O=C(CCCCC1SCC2NC(=O)NC21)NCCOCCOCCOCCOCCC(=O)Nc1ccc2[nH]c(=O)oc(=O)c2c1 (stereo not shown) [5Biot PEG4 IA 6, 5-biotin-hexyl ethylene glycol-isatoic anhydride] | 3.3 | 62/38 |  | 19 (≈ 12.4 mg/mL) |  |  |
| O=C(CCCCC1SCC2NC(=O)NC21)NCCOCCOCCNC(=O)Cn1c(=O)oc(=O)c2ccccc21 (stereo not shown) [N(Biot PEG2)IA 18, 1-biotin-ethylene glycol-isatoic anhydride] | 3.4 | 56/44 |  |  |  |  |
| O=C(CCCCCn1c(=O)oc(=O)c2ccccc21)NCCCOCCOCCOCCCNC(=O)CCCCC1SCC2NC(=O)NC21 (stereo not shown) [N(Biot PEG4) IA 21, N-(N-(biotin-dPEG3-propyl)-6-bromohexanamide) isatoic anhydride] | 0.7 | 49/51 |  |  |  |  |
| Cn1c(=O)oc(=O)c2cc(NC(=O)CCOCCOCCOCCOCCNC(=O)CCCCC3SCC4NC(=O)NC43)ccc21 (stereo not shown) [5Biot PEG4 IA Me 11, 1-methyl-5-biotin-hexyl ethylene glycol-isatoic anhydride] | 4 | 60/40 |  | 50 (≈ 33.3 mg/mL) |  |  |
| Cn1c(=O)oc(=O)c2cc(NC(=O)CCCCC3SCC4NC(=O)NC43)ccc21 (stereo not shown) [5Biot IA Me 9, 1-Methyl-5 biotin-isatoic anhydride] | 2.6 | 55/45 |  |  | 0.1 | very substantially greater than the background noise |
| O=C(CCCCC1SCC2NC(=O)NC21)Nc1ccc2[nH]c(=O)oc(=O)c2c1 (stereo not shown) [5Biot IA 5, 5-biotin-isatoic anhydride] | 1.2 |  |  | 1 (≈ 0.404 mg/mL) |  |  |
